The values that follow come from patent publication US9687432B2, “Antimicrobial bispyridine amine compositions and uses” (LONZA INC., priority 2012, dated 2017).

The nature of one series: Foam height test. The note with it: for foam height, 30 sec / foam height, 1 min / foam height, 2 min / foam height, Initial Reading: 0.5 grams in 49.5 ml DI water; for foam height, 30 sec / foam height, 1 min / foam height, 2 min: 100 ml graduated cylinder; for foam height, Initial Reading: read in 100 ml graduated cylinder with 1 ml line increments; for Type of Foam: 0.5 grams of active in 49.5 ml DI water, blended 1 minute. The series is classed as physicochemical. As to the method:
The testing was performed on samples containing octenidine dihydrochloride, octenidine distearate, PHMB HCl and the chloride salts benzalkonium chloride, benzethonium chloride, and cetylpyridinium chloride.
A 250 ml beaker was filed with 49.5 ml of deionized (DI) water for each sample. Then, 0.5 grams of the active was added to the beaker. Each solution was blended with a Bamix® wand homogenizer/mixer for 1 minute. The solution was then poured into a 100 ml graduated cylinder with 1 ml line increments. The height of the foam was documented at an initial, 30 second, 1 minute, and 2 minute time point.

Series [1] has as its system Corynebacterium minutissimum (23348). Nature of the series: MIC test against skin microorganisms. The series is classed as cell-based. The note with it: 48 hrs at 36° C., TSB first set, BHI second set. As to the method:
(§1) MICs for the organisms were determined using a standard 96-well microtiter plate assay in Trypic Soy Broth (TSB). […] Bacteria were grown in Tryptic Soy Broth or Brain Heart Infusion (E. hirae) for 24 hrs and were adjusted to one million cells per milliliter in same type of broth. Following incubation (48 hrs at 36° C.), the lowest concentration of test compound inhibiting growth was recorded as the Minimum Inhibitory Concentration (MIC). The actives were serially diluted and tested at final concentrations ranging from 156.3-0.61 ppm. MIC was run for two different sets.
(§2) Bacteria were grown overnight in Tryptic Soy Brother (TSB) or Brain Heart Infusion (BHI) and were adjusted to approximately 1×10^6 colony forming units per ml (cfu/ml) and used to inoculate the wells. Final bacterial concentration in the test wells was 5×10^5 cfu/ml. For Corynebacterium spp, TSB was used for the first set and BHI for the second set. Inoculated microtiter plates were incubated at 36° C. for 48 hours.
(§3) The lowest concentration of test compound inhibiting growth was recorded as the minimum inhibitory concentration.

Series [2] relates to Bacillus licheniformis (14580). Nature of the series: MIC test against skin microorganisms. It counts as cell-based. Conditions: 48 hrs at 36° C., two different sets. The protocol: as §1, §2, §3
The subject of series [3] is Corynebacterium xerosis (373). As to the kind of experiment: MIC test against skin microorganisms. It counts as cell-based. The note with it: 48 hrs at 36° C., TSB first set, BHI second set. The protocol:
as §1, §2, §3

The subject of series [4] is Staphylococcus haemolyticus (29970). Nature of the series: MIC test against skin microorganisms. The note with it: 48 hrs at 36° C., two different sets. The series is classed as cell-based. The protocol:
as §1, §2, §3

Series [5] concerns Penicillium pinophilium (11797). Nature of the series: Minimum Inhibitory Concentration (MIC) test, 96-well microtiter plate. It counts as cell-based. Conditions: 48 hrs at 36° C., Sabouraud Dextrose Broth. The protocol: (§4) MICs for the organisms were determined using a standard 96-well microtiter plate assay in Tryptic Soy Broth (TSB) or Sabouraud Dextrose Broth (SDB). A stock solution (2500 ppm) of Octenidine distearate was prepared in methanol and stock solutions (2500 ppm) of Octenidine dihydrochloride and PHMB were prepared in absolute ethanol. […] Fungal inocula were grown up on Sabouraud Dextrose Agar plates (yeast) or Potato Dextrose Agar plates (mold) and mold spores and yeast cells were adjusted to approximately 100,000 per milliliter in Sabouraud Dextrose Broth (pH 5.6). Bacterial and fungal cultures were used to inoculate the serially diluted antimicrobials in the 96 well microplate and the plate was then incubated for 48 hrs at 36° C. The lowest concentration of test compound inhibiting growth at 48 hrs. (as determined by visual inspection) was recorded as the Minimum Inhibitory Concentration (MIC)

Series [6] concerns Enterococcus hirae (8043). The series is described as above. Conditions: 48 hrs at 36° C., visual inspection. It counts as cell-based. As to the method: as §4
A further series relates to Candida albicans (10231). The series is described as above. The series is classed as cell-based. The note with it: 48 hrs at 36° C., Sabouraud Dextrose Broth. As to the method:
as §4

For the next series, the system named is Escherichia coli (10536). The series is described as above. The series is classed as cell-based. Conditions: 48 hrs at 36° C., visual inspection. The protocol:
as §4

In series [7] the test system is Pseudomonas aeruginosa (9027). The series is described as above. It counts as cell-based. Conditions: 48 hrs at 36° C., visual inspection. As to the method:
as §4

Series [8] deals with Enterobacter gergoviae (33028). Described as above. It counts as cell-based. The note with it: 48 hrs at 36° C., visual inspection. As to the method: as §4
Series [9] concerns Aspergillus niger (16404). Described as above. The note with it: 48 hrs at 36° C., Sabouraud Dextrose Broth. It counts as cell-based. As to the method:
as §4

The test system of series [10] is Staphylococcus aureus (6538). The series is described as above. It counts as cell-based. Conditions: 48 hrs at 36° C., visual inspection. As to the method: as §4
For a further series, the system named is Bacillus subtilus (6633). The description is as above. It counts as cell-based. The note with it: 48 hrs at 36° C., visual inspection. The protocol:
as §4

For series [11], the system named is Aureobasidium pullulans (9348). Described as above. The series is classed as cell-based. The note with it: 48 hrs at 36° C., Sabouraud Dextrose Broth. The protocol:
as §4

The subject of another series is LB penicillium sp. The description is as above. The series is classed as cell-based. Conditions: 48 hrs at 36° C., Sabouraud Dextrose Broth. As to the method: as §4
Series [12] concerns Gliocladium virens (9645). Described as above. Conditions: 48 hrs at 36° C., Sabouraud Dextrose Broth. The series is classed as cell-based. As to the method: as §4
In series [13] the test system is Pseudomonas aeruginosa (15442). Described as above. It counts as cell-based. The note with it: 48 hrs at 36° C., visual inspection. As to the method:
as §4

In another series the test system is Paecilomyces sp. The series is described as above. It counts as cell-based. The note with it: 48 hrs at 36° C., Sabouraud Dextrose Broth. As to the method:
as §4

Series [14] concerns Klebsiella pneumoniae (4352). The description is as above. It counts as cell-based. The note with it: 48 hrs at 36° C., visual inspection. As to the method: as §4

For the compound `CC(C)(C)CC(C)(C)c1ccc(OCCOCC[N+](C)(C)Cc2ccccc2)cc1` [Benzethonium Chloride, benzethonium chloride], in “Foam height test”, the “foam height, 30 sec” value was determined as 107; the “foam height, 1 min” value was determined as 107; the “foam height, 2 min” value is 106; the “foam height, Initial Reading” value was determined as 107. The “Type of Foam” value in the series “Foam height test” was “Tight”.

With “Polyhexamethylene biguanide stearate [PHMBS]”, the “MIC (ppm)” value is 0.61-4.88 ppm in series [1], 2.44-4.88 ppm in [2], 9.76 ppm in series [3] and 2.44-4.88 ppm in series [4].

Consider benzalkonium chloride, for which, in “Foam height test”, the “foam height, 30 sec” value is recorded as 103; the “foam height, 1 min” value is 102; the “foam height, 2 min” value was 102; the “foam height, Initial Reading” value stood at 103. The “Type of Foam” value in the series “Foam height test” is on record as “Tight”.

On to “polyhexamethylene biguanide hydrochloride [PHMB]”, for which the “Minimum Inhibitory Concentration (MIC)” value in series [5] is recorded as 2.44 ppm; in series [6], 2.44 ppm; in the series with Candida albicans (10231) it was 0.61 ppm; with Escherichia coli (10536) it was 1.22 ppm; in [7] it was 2.44 ppm; in [8], 1.22-2.44 ppm ^. Besides, the “Minimum Inhibitory Concentration (MIC)” value in series [9] is on record as 2.44 ppm; in [10] it was 1.22-2.44 ppm ^; in the series with Bacillus subtilus (6633) it was 0.31-0.61 ppm ^; in series [11], 1.22 ppm; with LB penicillium sp., 1.22 ppm; in [12], 0.61 ppm. Moreover, the “Minimum Inhibitory Concentration (MIC)” value in series [13] is recorded as 4.88 ppm; in the series with Paecilomyces sp., 1250-5000 ppm; in series [14] it was 1.22-2.44 ppm ^. Further, the “foam height, 30 sec” value in “Foam height test” was 85. Moreover, the “foam height, 1 min” value in the series “Foam height test” was 80. Besides, the “foam height, 2 min” value in “Foam height test” was 75. Moreover, the “foam height, Initial Reading” value in the series “Foam height test” came to 87. Also, the “Type of Foam” value in the series “Foam height test” is on record as “Slightly loose”.
